Results reported in US20090181888A1, “Skin Repair Accelerating Therapeutic Agent Containing Ghrelin and Derivatives Thereof or Substance Acting On GHS-R1a as Active Ingredient” (priority 2005, published 2009).
Square brackets hold non-standard residues; d marks the D form. Ends that are not written are not given here. * marks the point of attachment. Octanoyl = CCCCCCCC(=O)*

How the values were obtained:
Type in all cases: cell-based, Wistar rat
cultured fetal skin cell [1] = assay: [3H]-thymidine uptake acceleration in cultured fetal skin cell; settings: ghrelin 0.5, 5 and 50 pmol/mL (nM); incubated 24 or 48 hours; versus control without ghrelin; FIG. 3
Procedure: The skin cells of a rat fetus were collected from a Wistar rat on the 17th day of pregnancy, and a dispersion liquid thereof was obtained in the same manner as in Example 2. The dispersed cells were suspended in a MCDB153HAA medium (F-Peptide Co., Ltd., Yamagata, Japan) containing 2% fetal bovine serum, penicillin (100 U/mL), streptomycin (100 μg/mL) and epidermal growth factor EGF (5 ng/mL), and sowed on a polyethyleneimine coated 48-hole multi-well plate in an amount of 5×10^5 cells/well. Ghrelin ([…] (nM))) and [^3H]-thymidine (2 μCi/mL) were added thereto, which was then incubated for 24 hours or 48 hours. A culture solution without containing ghrelin was prepared as a control. After the incubation was over, the cells were collected and radioactivity was measured.
The results are shown in FIG. 3 (black triangle: 50 pmol/mL, black square: 5 pmol/mL, black circle: 0.5 pmol/mL, white circle: control).

cultured fetal skin cell [2] = assay: Cell proliferation acceleration (BrdU uptake, Proliferation ELISA) in cultured fetal skin cell; settings: ghrelin 0.05 to 500 pmol/mL (nM) or GHRP6 0.05 to 50 pmol/mL (nM); 24 hours; versus control medium; FIG. 4
Procedure: The fetal skin cells were collected from a Wistar rat on the 17th day of pregnancy, and a dispersion liquid thereof was obtained in the same manner as in Example 2. The dispersed cells with ghrelin (0.05 to 500 pmol/mL (nM)) or GHRP6 (0.05 to 50 pmol/mL (nM)) were suspended in a MCDB153HAA medium (F-Peptide Co., Ltd., Yamagata, Japan) containing 2% fetal bovine serum, penicillin (100 U/mL), streptomycin (100 μg/mL) and epidermal growth factor EGF (5 ng/mL), and sowed on a polyethyleneimine coated 96-hole multi-well plate in an amount of 3×10^4 cells/well. A medium without containing ghrelin or GHRP6 was used as a control. 5-bromo-2′-deoxyuridine (BrdU) (10 μM) was added thereto, which was then incubated for 24 hours. After the culture was over, uptake quantity of BrdU into the fetal skin cell was measured using Proliferation ELISA Kit (Roche Diagnostic GmbH. Manheim, Germany) to consider the skin cell growth activity.

[3] = system: fetal skin cell having GHS-R1a; assay: Intracellular calcium-increasing activity in cultured fetal skin cell (Fura-2 calcium imaging); settings: single skin cell of rat fetus
Procedure: A Wistar rat on the 17th day of pregnancy underwent laparotomy under anesthesia for fetus extraction. A small piece of skin was collected from the fetus, treated with collagenase in cold Hank's solution, digested with papain, and mechanically separated by pipetting. This gave a dispersion liquid of the fetal skin cells. A single cell was obtained from the dispersion liquid, ghrelin was added thereto, and calcium imaging was performed. For the calcium imaging, a calcium imaging device (IMACS, Hamamatsu Photonics) was used. That is, the ratio of the emission at a wavelength of 510 nm was measured when excitation was performed by 340 nm/380 nm light. Fura-2 was used as a calcium imaging agent. Ghrelin derived from a rat (SEQ ID NO: 3) was used (the same in the following Examples).
In FIG. 2, I, II and III are the points at which a photograph was taken, but the photographs are omitted from the present description. […] Ghrelin and desacylghrelin were added to different cells, respectively.

| Substance | uptake of [3H]-thymidine into the cell (cultured fetal skin cell [1]) | uptake of BrdU into the fetal skin cell (cultured fetal skin cell [2]) | intracellular calcium in a single fetal skin cell ([3]; ghrelin 1×10^−6 M, day 17 of pregnancy, Fura-2, 340 nm/380 nm ratio, FIG. 2) | calcium response of a single fetal skin cell (FIG. 2 curve) ([3]; dotted-line curve of FIG. 2, concentration not given) |
| --- | --- | --- | --- | --- |
| GSS (n-octanoyl) FLSPEHQKAQQRKESKKPPAKLQPR (GSS(Octanoyl)FLSPEHQKAQQRKESKKPPAKLQPR; listed as Rattus norvegicus) [ghrelin, 28-residue peptide, serine 3 acylated with n-octanoyl, endogenous GHS-R1a ligand] | increased | significantly increased | increase of calcium was observed | – |
| H[dW]AW[dF]K-NH2 [GHRP6, reference compound] | – | significantly increased | – | – |
| desacylghrelin [reference compound] | – | – | – | responded |
